Results on 7 molecules are retold here after patent US20250230138A1, “COMPOUNDS HAVING A T-STRUCTURE FORMED BY AT LEAST FOUR CYCLES FOR USE IN THE TREATMENT OF CANCER AND OTHER INDICATIONS” (TheRas, Inc., priority 2022, published 2025).

Read-outs that look alike come from different tables or passages of the source.

Series [1] has as its system pAKT in Tet-on KRAS G12D HeLa cells. In words: Cell-based pAKT HTRF assay in Tet-on KRAS G12D HeLa cells. Particulars: read-out: pAKT inhibition IC50 in Tet-on KRAS G12D HeLa cells. Here is the method: To determine the effectiveness of compounds in disrupting PIK3CA/KRAS signaling in cells, we implemented pAKT HTRF assay (Perkin-Elmer) in Tet-on KRAS G12D HeLa cells.
On Day 1, cells were seeded into 96-well plates at 2×10^4 cells/well in complete growth media (DMEM, 10% Tet-Screened FBS) supplemented with 200 ng/mL doxycycline.
On Day 2, cells were treated with compounds at 0.25% DMSO. The source plate was created with compounds diluted in media at 5-fold the final assay concentration. The compounds are run in a 9-point concentration curve starting at 75 μM, with a 3-fold dilution between concentrations. […] 20 μL was transferred onto the cell plates (final volume in wells was 100 μL). Plates were harvested after 30 min and 4 hr incubation by aspirating media and adding kit-supplied 1× supplemented lysis buffer to all wells (50 μL per well). This then changed to 4 hr only when compounds became covalent. Plates were then placed on a plate shaker and incubated at 850 rpm for an additional 30 min. The antibody mixture solution was prepared by diluting aliquoted d2 and Eu Cryptate antibodies 1:20 in kit supplied detection buffer, then mixed the diluted antibodies solutions (1:1 v:v). 4 μL of this solution was then added to a 384-well detection plate (Perkin Elmer; 6008230). Samples were homogenized by pipetting up and down and then transferred (16 μL of cell lysates) from the 96-well cell culture plate to two wells of the HTRF 384-well detection plate containing the antibody solution. Plates were centrifuged (524 g for 1 min) and allowed to incubate between 4 and 24 h at room temperature. The maximum signal is reached after 4 h incubation time and remains stable over a period of 24 hours. Therefore, readings can be made between 4 and 24 h of incubation. Plates were centrifuged again (524 g for 1 min), and analyzed on the EnVision plate reader using the following settings: Excitation 320 nm, Bandwidth […]; Emission 615 nm, Bandwidth […], Gain 100%, Flashes 100, Lag 60 μs.
(In general: In TR-FRET formats the signal depends on donor and acceptor labels being close together.)

Series [2] deals with KRAS-PI3Kα interaction (KRAS-Q25A binding to avi-tagged full length PI3Kα) (Homo sapiens (Human), UniProt P42336). In words: Disrupting KRAS-PI3Kα interaction by SPR inhibition assay. Conditions: KRAS-Q25A at 20 μM, 25° C. On the procedure: SPR binding experiments were collected on a Biacore 8K Instrument (Cytiva). Neutravidin (Pierce) was amine coupled to the carboxymethylated dextran surface of a CM5 sensor chip (Cytiva) using standard amine coupling chemistry. The CM5 chip surface was first activated with 0.1 M N-hydroxy succinimide and 0.4 M N-ethyl-N′-(3-dimethyl aminopropyl) carbodiimide at a flow rate of 20 μL/min using 20 mM HEPES pH 7.4, 150 mM NaCl as the running buffer. Next, neutravidin was diluted to 20 μg/mL in 10 mM sodium acetate (pH 4.5) and injected on all flow cells until a density of approximately 10,000 response units (RU) was immobilized. Activated amine groups were quenched with an injection of 1 M ethanolamine (pH 8.0). 300-500 RU of avi-tagged full length PI3Kα was captured on all flow cells in 20 mM HEPES pH 7.4, 150 mM NaCl, 5 mM MgCl2, 1 mM TCEP, 0.05% tween 20, 5% DMSO buffer. KRAS-Q25A at 20 μM was mixed with 8 concentrations of compound (50 nM-100 μM) and injected over the full-length PI3Kα at 30 μL/min and 25° C. Steady-state levels of KRAS binding were recorded and fit with a 4-parameter inhibition model to determine the IC50 values.
On the technique in general: In SPR one partner is held on a chip, and binding of the other changes the refractive index at the surface.

The target in series [3] is Cys242 in human PIK3CA (157-299) (Homo sapiens (Human), UniProt P42336). In words: Covalent modification assay using MALDI-TOF MS. It counts as biochemical. Conditions: 4 h reaction time point; 3.33 μM protein target, 1:7.5 protein to compound ratio (compounds 1-852). The essentials: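 PIK3CA (157-299), 3.33 or 1 μM in 20 mM HEPES, 150 mM NaCl, 2 mM MgCl2, pH 7.3, was incubated with compound at room temperature in the dark for 15 min, 30 min, 2 h or 4 h. Linear MALDI-TOF read-out; % modification = adduct peak height over summed heights of all protein species.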

The nature of series [4]: Oral glucose tolerance test in fasted mice. Particulars: fasted male C57/BL6J mice, one oral dose 50 mg/kg, 2 g/kg glucose 1 h later, 15-120 minutes. It counts as in vivo. On the procedure:
Two in vivo studies were performed to determine whether Compound 58 administration induces hyperglycemia and hyperinsulinemia in mice like the PI3Kα kinase domain inhibitor alpelisib (FIGS. 3C and 3D). In the first study, an oral glucose tolerance test was performed in fasted mice following the administration of compounds to determine if Compound 58 induces hyperglycemia (FIG. 3C). Male C57/BL6J mice were fasted overnight for 16 hours and approximately 5 μL of whole blood was collected via tail snip to measure fasted blood glucose levels using a glucometer. Mice were randomized into three groups (8 mice per group) based on blood glucose levels and then administered one oral dose of vehicle, 50 mg/kg alpelisib, or 300 mg/kg Compound 58. One hour later, blood was collected for a glucose measurement and then a single oral dose of a 2 g/kg glucose solution was administered. Blood glucose measurements were performed at 15, 30, 60, 90, and 120 minutes after the administration of the glucose solution.

The nature of series [5]: Serum insulin levels in fed mice. It counts as in vivo. Particulars: fed male C57/BL6J mice, 240 minutes after one oral dose 50 mg/kg. Here is the method:
In the second study, serum insulin levels were measured in fed mice following administration of compounds to determine if Compound 58 induces hyperinsulinemia like the PI3Kα kinase domain inhibitor alpelisib (FIG. 3D). Approximately 5 μL of whole blood was collected via tail snip from male C57/BL6J mice and used to measure fed blood glucose levels using a glucometer. Mice were randomized into three groups (8 mice per group) based on blood glucose levels and then administered one oral dose of vehicle, 50 mg/kg alpelisib, or 300 mg/kg Compound 58. 240 minutes later, whole blood was collected and processed to serum and insulin levels were measured using an ELISA.

The test system of series [6] is pAKT (Ser473) in BT474 CDX tumors. In words: Pharmacodynamic activity (tumor pAKT) in BT474 cell line-derived xenograft model. It counts as in vivo, mice. Particulars: NOD/SCID mice, 4 hours after one oral dose of 50 mg/kg. On the procedure: An in vivo study was conducted to evaluate the pharmacodynamic activity of Compound 58 in the breast cancer estrogen receptor positive (ER+) BT474 cell line-derived xenograft (CDX) model, which harbors a HER2 amplification and PIK3CA linker domain K111N mutation (FIG. 3B). NOD/SCID mice were implanted subcutaneously with BT474 human tumor cells and were injected subcutaneously with estradiol benzoate twice a week to support tumor growth. When tumors reached a mean size of 286 mm^3, mice were randomized into treatment groups (4 mice per group) and administered one oral dose of vehicle, 30 mg/kg Compound 58, 100 mg/kg Compound 58, 300 mg/kg Compound 58, or 50 mg/kg alpelisib. Alpelisib is a PI3Kα kinase domain inhibitor and was included as a positive control. Whole blood and tumors were collected 4 hours post the dose. Blood was processed to plasma and compound concentrations were determined with LC-MS/MS. Tumors were processed into lysates and pAKT levels were measured using the Meso Scale Diagnostics (MSD) multi-spot pAKT (Ser473)/total AKT assay whole cell lysate kit.

Series [7] in a line: Blood glucose after an oral glucose tolerance test in fasted male mice (FIG. 3C). It counts as in vivo. Conditions: single dose. Here is the method:
(§1) (One-way ANOVA with Dunnett's test vs. vehicle; *=p<0.01; **=p<0.0001). From left to right along x-axis in FIG. 3B: vehicle, 30 mg/kg BBO, 100 mg/kg BBO, 300 mg/kg BBO, 50 mg/kg alpelisib. […] (One-way ANOVA with Tukey's multiple comparisons test vs all other groups: *p<0.0001) (IV=intravenous administration; PO=per os or oral administration; ng/mL=nanograms per milliliters; mg/kg=milligrams per kilogram; mg/dL=milligrams per deciliter; min=minutes; CDX=cell line derived xenograft; QD=quaque die or once daily, PK=pharmacokinetics)

Series [8] is described as follows: Insulin levels in fed male mice (FIG. 3D). It counts as in vivo. Particulars: single oral dose 50 mg/kg, 240 minutes after administration. On the procedure: as §1
In series [9] the test system is pAKT in BT474 cells. In words: Cell-based pAKT HTRF assay in BT474 cells. Conditions: Homo sapiens, BT-474; BT474 cell line; read-out: pAKT (IC50). The essentials:
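The HTRF signal (excitation 320 nm, emission 615 nm) came from d2/Eu Cryptate antibodies added to lysates and incubated 4–24 h at room temperature. Those lysates were taken from cells treated for 4 hr with compound, top concentration 3 μM, in 0.25% DMSO.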

Series [10] deals with BT474 cell line. In words: Cell viability in BT474 cell line. It counts as cell-based. Particulars: Homo sapiens, BT-474. From the text: Table 8 compares the pAKT IC50 and cell viability for Compound 58, a PI3Kα breaker, and the PI3Kα inhibitor alpelisib in the breast cancer estrogen receptor positive (ER+) BT474 cell line, which harbors a HER2 amplification and PIK3CA linker domain K111N mutation. […] Importantly, the potency on pAKT translates well into a loss in cellular viability.

The conditions of series [11]: Phase III clinical trial; cited from earlier work.

Chain of KRAS-PI3Kα interaction (KRAS-Q25A binding to avi-tagged full length PI3Kα) (P42336 whole entry, looked up, stated change not applied): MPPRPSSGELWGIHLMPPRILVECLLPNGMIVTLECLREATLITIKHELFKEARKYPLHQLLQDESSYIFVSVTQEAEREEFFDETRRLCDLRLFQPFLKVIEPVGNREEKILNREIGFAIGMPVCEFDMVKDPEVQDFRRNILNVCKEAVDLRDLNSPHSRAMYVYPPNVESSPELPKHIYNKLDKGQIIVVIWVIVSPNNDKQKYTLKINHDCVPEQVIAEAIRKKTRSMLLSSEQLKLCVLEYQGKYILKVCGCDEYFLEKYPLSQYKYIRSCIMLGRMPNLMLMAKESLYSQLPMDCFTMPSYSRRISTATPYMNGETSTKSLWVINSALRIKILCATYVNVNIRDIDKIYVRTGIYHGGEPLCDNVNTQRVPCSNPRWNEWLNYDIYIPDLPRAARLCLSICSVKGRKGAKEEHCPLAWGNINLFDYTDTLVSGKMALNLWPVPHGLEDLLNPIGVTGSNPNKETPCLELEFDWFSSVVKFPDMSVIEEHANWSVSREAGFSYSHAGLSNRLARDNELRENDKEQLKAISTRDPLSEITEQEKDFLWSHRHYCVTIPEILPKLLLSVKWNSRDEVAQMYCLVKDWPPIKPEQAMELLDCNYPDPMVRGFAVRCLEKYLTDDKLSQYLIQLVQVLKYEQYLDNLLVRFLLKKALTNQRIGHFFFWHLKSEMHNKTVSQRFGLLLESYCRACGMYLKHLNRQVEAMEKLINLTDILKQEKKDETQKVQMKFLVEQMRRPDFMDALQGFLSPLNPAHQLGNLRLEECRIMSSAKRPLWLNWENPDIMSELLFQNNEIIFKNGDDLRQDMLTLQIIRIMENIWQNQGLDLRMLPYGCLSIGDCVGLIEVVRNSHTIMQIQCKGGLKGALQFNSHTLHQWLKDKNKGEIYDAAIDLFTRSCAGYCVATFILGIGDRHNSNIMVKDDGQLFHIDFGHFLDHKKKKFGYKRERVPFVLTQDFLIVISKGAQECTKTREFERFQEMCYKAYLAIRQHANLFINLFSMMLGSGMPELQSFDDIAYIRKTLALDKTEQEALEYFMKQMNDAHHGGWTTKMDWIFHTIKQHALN
Chain of KRAS-PI3Kα interaction (KRAS-Q25A binding to avi-tagged full length PI3Kα) (P27986 whole entry partner, looked up): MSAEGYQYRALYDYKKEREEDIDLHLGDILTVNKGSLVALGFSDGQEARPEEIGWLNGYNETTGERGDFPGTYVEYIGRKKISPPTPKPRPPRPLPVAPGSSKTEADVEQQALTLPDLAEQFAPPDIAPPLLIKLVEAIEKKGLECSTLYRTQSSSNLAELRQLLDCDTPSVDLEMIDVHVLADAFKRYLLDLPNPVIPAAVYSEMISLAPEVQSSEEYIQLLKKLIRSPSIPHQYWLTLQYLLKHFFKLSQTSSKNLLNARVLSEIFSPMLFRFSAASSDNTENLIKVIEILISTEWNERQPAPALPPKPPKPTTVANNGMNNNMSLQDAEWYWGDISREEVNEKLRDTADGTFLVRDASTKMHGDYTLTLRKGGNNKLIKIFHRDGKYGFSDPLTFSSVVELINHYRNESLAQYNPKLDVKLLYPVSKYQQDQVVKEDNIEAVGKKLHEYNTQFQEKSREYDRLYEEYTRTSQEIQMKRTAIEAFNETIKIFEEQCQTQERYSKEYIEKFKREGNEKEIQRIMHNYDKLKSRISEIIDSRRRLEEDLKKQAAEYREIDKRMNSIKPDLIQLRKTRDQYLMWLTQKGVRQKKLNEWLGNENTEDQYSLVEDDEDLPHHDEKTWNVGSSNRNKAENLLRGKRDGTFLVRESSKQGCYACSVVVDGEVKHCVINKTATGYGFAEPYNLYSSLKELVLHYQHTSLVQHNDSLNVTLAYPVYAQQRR
Chain of Cys242 in human PIK3CA (157-299) (P42336 157-299): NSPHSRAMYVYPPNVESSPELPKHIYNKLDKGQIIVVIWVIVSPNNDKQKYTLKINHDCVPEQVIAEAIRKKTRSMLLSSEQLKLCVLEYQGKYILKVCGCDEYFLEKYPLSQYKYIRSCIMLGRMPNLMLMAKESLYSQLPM

In general, IC50 refers to the midpoint of a concentration-inhibition curve. On to `C=CC(=O)NCc1cccc(-c2nc(-c3ccc4c(c3)CCNC4)c3ccsc3c2-c2ccc(F)cc2OCCOC)c1` [Compound 11, N-[[3-[7-[4-fluoro-2-(2-methoxyethoxy)phenyl]-4-(1,2,3,4-tetrahydroisoquinolin-6-yl)thieno[3,2-c]pyridin-6-yl]phenyl]methyl]prop-2-enamide], for which the IC50 in series [1] (Homo sapiens, HeLa) is 1 to 10 µM; in [2] it was under 5 µM. The “% of modification” value in series [3] is reported as “C (25%≤percent of modification <50%)”.

Regarding `C=CC(=O)NCc1cccc(-c2nc(-c3ccc4c(c3)CCNC4)c3c(c2-c2ccccc2OCCOC)CCC3)c1` [Compound 1, N-(3-(4-(2-(2-methoxvethoxy)phenyl)-1-(1,2,3,4-tetrahydroisoquinolin-6-yl)-6,7-dihydro-5H-cyclopenta[c]pyridin-3-yl)benzyl)acrylamide], the IC50 in series [1] (Tet-on KRAS G12D HeLa cells) lay in the range of 1 to 10 µM; in series [2] it was 5 to 25 µM. Further, in [3], the “% of modification” value is reported as “D (percent of modification <25%)”.

As to `C=CC(=O)N1CCC(n2cc(-c3nc(-c4ccc5c(c4)CCNC5)c4ccsc4c3-c3ccc(F)cc3OCCOC)cn2)CC1` [compound 30], the IC50 was under 1 µM in [1] (Tet-on KRAS G12D HeLa cells) and 5 to 25 µM in [2]. Besides, the “% of modification” value in series [3] is recorded as “A (percent of modification of PIK3CA protein ≥75%)”.

With `C=CC(=O)N1CCC(n2cc(-c3nc(-c4ccc5c(c4)CCN(C)C5)c4ccsc4c3-c3ccc(F)cc3OCCOC)cn2)C1` (centres unmarked) [compound 43], the IC50 is under 1 µM in series [1] (Tet-on KRAS G12D HeLa cells) and 5 to 25 µM in series [2]. Further, the “% of modification” value in series [3] is “A (percent of modification of PIK3CA protein ≥75%)”.

As to `C=CC(=O)NCCc1cccc(-c2nc(-c3ccc4c(c3)CCNC4)c3ccsc3c2-c2ccc(F)cc2OCCOC)c1` [compound 40], the IC50 was 1 to 10 µM in [1] (Tet-on KRAS G12D HeLa cells) and under 5 µM in series [2]. Also, the “% of modification” value in series [3] was “A (percent of modification of PIK3CA protein ≥75%)”.

In the case of `C=CC(=O)Nc1cccc(-c2nc(-c3ccc4c(c3)CCC(N(C)C)C4)c3ccsc3c2-c2ccc(F)cc2OCCOC)c1` (centres unmarked) [compound 36], the IC50 was 1 to 10 µM in [1] (Tet-on KRAS G12D HeLa cells) and under 5 µM in [2]. Besides, the “% of modification” value in series [3] is “A (percent of modification of PIK3CA protein ≥75%)”.

Turning to `Cc1nc(NC(=O)N2CCC[C@H]2C(N)=O)sc1-c1ccnc(C(C)(C)C(F)(F)F)c1` [alpelisib, reference compound], the “Blood glucose levels after glucose dose (oral glucose tolerance test)” value in series [4] is given as “significantly elevated”. In [5], the Serum insulin levels result is “significantly elevated”. The same molecule had a pAKT inhibited in series [6] of 97%. In [7], the “blood glucose levels (hyperglycemia)” value is “Hyperglycemia is observed”. The “insulin levels (hyperinsulinemia)” value in series [8] is on record as “Hyperinsulinemia is observed”. The IC50 in series [9] stood at 0.169 µM; in [10] it was 0.744 µM. In addition, in series [11], the “patients in whom hyperglycemia was observed” value is on record as 65%.
